Active and inactive are the calls of the source. The rule behind the calls is not given here.
Experiments:
[1] = test system: THP-1; experiment: Upregulation of MyD88 expression in human PMA-differentiated THP-1 cells assessed as downregulation of IkappaBalpha at 10 uM incubated for 2 hrs by Western blot analysis; type: functional, cell-based
[2] = test system: THP-1; experiment: Induction of TNFalpha secretion in TLR2 knock down human THP-1 cells at 20 to 40 uM incubated for 24 hrs by ELISA method; type: functional, cell-based; settings: dose 20-40 µM
[3] = test system: HCT-116; experiment: Induction of apoptosis in human HCT-116 cells cocultured with PMA-differentiated THP-1 cells assessed as early apoptotic cells at 10 uM measured after 24 hrs using annexin V-FITC/PI staining based flow cytometry; type: functional
[4] = target: Toll-like receptor 2 (Homo sapiens, UniProt O60603); experiment: Agonist activity at TLR2 in HEK-Blue cells incubated for 24 hrs by Quanti-Blue based SEAP assay; type: cell-based; settings: HEK-Blue hTLR2, filed as agonist
[5] = Cytotoxicity against human PBMC upto 100 uM incubated for 24 hrs by CCK-8 assay; type: toxicity, cell-based
[6] = test system: HEK-Blue hTLR2; experiment: Upregulation of TLR2 expression in HEK-Blue TLR2 cells incubated for 24 hrs by Western blot analysis; type: functional, cell-based; settings: Homo sapiens, dose 0.01-50 µM
[7] = test system: PBMC; experiment: Induction of TNFalpha secretion in human PBMC incubated for 24 hrs by ELISA method; type: functional, cell-based; settings: dose 0.01-10 µM
[8] = test system: B-cell line; experiment: Immunostimulatory activity in mouse C57 spleen B cells in assessed as fold increase at 0.1 to 10 uM incubated for 48 hrs by flow cytometry analysis; type: functional, cell-based; settings: dose 0.1-10 µM
[9] = test system: THP-1; experiment: Upregulation of TLR2 expression in human THP-1 cells at 20 uM by immunoprecipitation method; type: functional, cell-based
[10] = test system: CD3-positive T cell; experiment: Immunostimulatory activity in mouse C57 spleen CD3+ T cells in assessed as fold increase at 0.1 to 10 uM incubated for 48 hrs by flow cytometry analysis; type: functional, cell-based; settings: dose 0.1-10 µM
[11] = test system: THP-1; experiment: Upregulation of MyD88 expression in human PMA-differentiated THP-1 cells assessed as induction of IKKbeta phosphorylation at 10 uM incubated for 2 hrs by Western blot analysis; type: functional, cell-based
[12] = test system: Macrophage; experiment: Induction of TNFalpha secretion in TLR2-/- C57BL/6 mouse peritoneal macrophages at 0.01 to 10 uM incubated for 24 hrs by ELISA method; type: functional, cell-based; settings: dose 0.01-10 µM
[13] = test system: THP-1; experiment: Upregulation of TLR2 expression in human THP-1 cells at 0.01 to 50 uM incubated for 24 hrs by Western blot analysis; type: functional, cell-based; settings: dose 0.01-50 µM
[14] = Selectivity index, ratio of CC50 for HEK-Blue TLR2 cells to EC50 for agonist activity at TLR2 in HEK-Blue TLR2 cells; type: functional
[15] = test system: B cell; experiment: Immunostimulatory activity in human B cells assessed as fold increase at 0.1 to 10 uM incubated for 48 hrs by flow cytometry analysis; type: functional; settings: dose 0.1-10 µM
[16] = test system: Macrophage; experiment: Induction of IL-6 secretion in wild-type C57BL/6 mouse peritoneal macrophages at 0.01 to 10 uM incubated for 24 hrs by ELISA method; type: functional, cell-based; settings: dose 0.01-10 µM
[17] = Immunostimulatory activity in human CD8+ T cells assessed as fold increase at 0.1 to 10 uM incubated for 48 hrs by flow cytometry analysis; type: functional, CD8-positive T cell; settings: dose 0.1-10 µM
[18] = test system: THP-1; experiment: Upregulation of MyD88 expression in human PMA-differentiated THP-1 cells in presence of T6167923 at 10 uM incubated for 2 hrs by western blot analysis; type: functional, cell-based
[19] = target: Toll-like receptor 4 (Homo sapiens) (UniProt O00206); experiment: Agonist activity at TLR4 in HEK-Blue hTLR4 cells at 0.1 to 100 uM incubated for 24 hrs by Quanti-Blue based SEAP assay; type: cell-based; settings: dose 0.1-100 µM
[20] = test system: HCT-116; experiment: Induction of apoptosis in human HCT-116 cells cocultured with PMA-differentiated THP-1 cells assessed as increase in annexin-V positive cells at 10 uM measured after 24 hrs by annexin V-FITC/PI staining based flow cytometry (reference value: 16.23%); type: functional
[21] = target: Toll-like receptor 5 (Homo sapiens) (UniProt O60602); experiment: Agonist activity at TLR5 in HEK-Blue hTLR5 cells at 0.1 to 100 uM incubated for 24 hrs by Quanti-Blue based SEAP assay; type: cell-based; settings: dose 0.1-100 µM
[22] = test system: THP-1; experiment: Induction of TNFalpha secretion in human PMA-differentiated THP-1 cells incubated for 24 hrs by ELISA method; type: functional, cell-based; settings: dose 0.01-10 µM
[23] = target: Toll-like receptor 8 (Homo sapiens) (UniProt Q9NR97); experiment: Agonist activity at TLR8 in HEK-Blue hTLR8 cells at 0.1 to 100 uM incubated for 24 hrs by Quanti-Blue based SEAP assay; type: cell-based; settings: dose 0.1-100 µM
[24] = test system: THP-1; experiment: Induction of ERK phosphorylation in human PMA-differentiated THP-1 cells at 10 uM incubated for 2 hrs by Western blot analysis; type: functional, cell-based
[25] = test system: Natural killer cell; experiment: Immunostimulatory activity in human NK cells assessed as fold increase at 0.1 to 10 uM incubated for 48 hrs by flow cytometry analysis; type: functional; settings: dose 0.1-10 µM
[26] = test system: MCF7; experiment: Induction of apoptosis in human MCF7 cells cocultured with PMA-differentiated THP-1 cells assessed as early apoptotic cells at 10 uM measured after 24 hrs by annexin V-FITC/PI staining based flow cytometry (reference value: 7.87 %); type: functional
[27] = test system: MCF7; experiment: Induction of apoptosis in human MCF7 cells upto 100 uM by microplate reader analysis; type: functional, cell-based; settings: dose microM <=100
[28] = target: Toll-like receptor 1 (Homo sapiens) (UniProt Q15399); experiment: Agonist activity at TLR1 in HEK-Blue hTLR2 cells at 0.2 uM incubated for 24 hrs in presence of anti-hTLR1-IgG antibodies measured by Quanti-Blue based SEAP assay; type: cell-based; settings: filed as agonist
[29] = target: Toll-like receptor 1/2 (Homo sapiens) (UniProt O60603+Q15399); experiment: Agonist activity at TLR1/TLR2 in human THP-1 cells assessed as induction of TLR1/TLR2 dimerization at 20 uM incubated for 12 hrs by coimmunoprecipitation method; type: cell-based; settings: filed as agonist
[30] = test system: CD4+ve Th; experiment: Immunostimulatory activity in human CD4+ T cells at 0.1 to 10 uM incubated for 48 hrs by flow cytometry analysis; type: functional, cell-based; settings: dose 0.1-10 µM
[31] = test system: THP-1; experiment: Induction of JNK phosphorylation in human PMA-differentiated THP-1 cells at 10 uM incubated for 2 hrs by Western blot analysis; type: functional, cell-based
[32] = test system: THP-1; experiment: Upregulation of MyD88 expression in human PMA-differentiated THP-1 cells assessed as induction of p38 phosphorylation at 10 uM incubated for 2 hrs by Western blot analysis; type: functional, cell-based
[33] = test system: THP-1; experiment: Upregulation of MyD88 expression in human PMA-differentiated THP-1 cells assessed as induction of p65 phosphorylation at 10 uM incubated for 2 hrs by Western blot analysis; type: functional, cell-based
[34] = test system: HCT-116; experiment: Induction of apoptosis in human HCT-116 cells upto 100 uM by microplate reader analysis; type: functional, cell-based; settings: dose microM <=100
[35] = Stability in mouse liver microsomes assessed as half life at 250 uM in presence of NADPH by HPLC-MS analysis; type: ADME
[36] = test system: Macrophage; experiment: Induction of TNFalpha secretion in wild-type C57BL/6 mouse peritoneal macrophages at 0.01 to 10 uM incubated for 24 hrs by ELISA method; type: functional, cell-based; settings: dose 0.01-10 µM

Chain of Toll-like receptor 8 (Homo sapiens) (Q9NR97 whole entry): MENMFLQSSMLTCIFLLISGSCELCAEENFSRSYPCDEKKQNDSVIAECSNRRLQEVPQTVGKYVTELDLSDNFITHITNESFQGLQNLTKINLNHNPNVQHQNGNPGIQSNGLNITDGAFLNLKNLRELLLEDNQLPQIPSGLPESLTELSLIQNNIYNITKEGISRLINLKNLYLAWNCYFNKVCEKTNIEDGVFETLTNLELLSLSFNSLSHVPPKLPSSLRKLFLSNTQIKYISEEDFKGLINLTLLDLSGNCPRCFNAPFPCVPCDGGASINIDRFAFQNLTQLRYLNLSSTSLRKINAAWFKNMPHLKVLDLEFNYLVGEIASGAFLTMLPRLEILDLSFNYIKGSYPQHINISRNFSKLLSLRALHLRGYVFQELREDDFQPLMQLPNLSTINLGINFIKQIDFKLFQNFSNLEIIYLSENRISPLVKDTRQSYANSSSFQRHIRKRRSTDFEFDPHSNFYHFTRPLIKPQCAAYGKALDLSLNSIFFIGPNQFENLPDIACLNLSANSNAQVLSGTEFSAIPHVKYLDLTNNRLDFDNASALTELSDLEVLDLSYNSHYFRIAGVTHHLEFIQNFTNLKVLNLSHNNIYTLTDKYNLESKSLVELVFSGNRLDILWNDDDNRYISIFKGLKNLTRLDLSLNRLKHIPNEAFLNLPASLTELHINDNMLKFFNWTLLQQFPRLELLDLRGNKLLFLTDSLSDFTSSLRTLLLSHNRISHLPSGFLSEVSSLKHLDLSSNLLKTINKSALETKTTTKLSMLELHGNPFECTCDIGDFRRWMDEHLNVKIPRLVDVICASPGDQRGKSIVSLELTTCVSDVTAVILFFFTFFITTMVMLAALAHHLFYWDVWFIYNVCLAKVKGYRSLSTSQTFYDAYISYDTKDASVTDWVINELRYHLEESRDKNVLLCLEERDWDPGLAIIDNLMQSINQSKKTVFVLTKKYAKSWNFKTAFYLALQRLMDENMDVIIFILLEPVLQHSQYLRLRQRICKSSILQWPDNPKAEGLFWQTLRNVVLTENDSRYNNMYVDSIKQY
Chain of Toll-like receptor 1 (Homo sapiens) (Q15399 whole entry): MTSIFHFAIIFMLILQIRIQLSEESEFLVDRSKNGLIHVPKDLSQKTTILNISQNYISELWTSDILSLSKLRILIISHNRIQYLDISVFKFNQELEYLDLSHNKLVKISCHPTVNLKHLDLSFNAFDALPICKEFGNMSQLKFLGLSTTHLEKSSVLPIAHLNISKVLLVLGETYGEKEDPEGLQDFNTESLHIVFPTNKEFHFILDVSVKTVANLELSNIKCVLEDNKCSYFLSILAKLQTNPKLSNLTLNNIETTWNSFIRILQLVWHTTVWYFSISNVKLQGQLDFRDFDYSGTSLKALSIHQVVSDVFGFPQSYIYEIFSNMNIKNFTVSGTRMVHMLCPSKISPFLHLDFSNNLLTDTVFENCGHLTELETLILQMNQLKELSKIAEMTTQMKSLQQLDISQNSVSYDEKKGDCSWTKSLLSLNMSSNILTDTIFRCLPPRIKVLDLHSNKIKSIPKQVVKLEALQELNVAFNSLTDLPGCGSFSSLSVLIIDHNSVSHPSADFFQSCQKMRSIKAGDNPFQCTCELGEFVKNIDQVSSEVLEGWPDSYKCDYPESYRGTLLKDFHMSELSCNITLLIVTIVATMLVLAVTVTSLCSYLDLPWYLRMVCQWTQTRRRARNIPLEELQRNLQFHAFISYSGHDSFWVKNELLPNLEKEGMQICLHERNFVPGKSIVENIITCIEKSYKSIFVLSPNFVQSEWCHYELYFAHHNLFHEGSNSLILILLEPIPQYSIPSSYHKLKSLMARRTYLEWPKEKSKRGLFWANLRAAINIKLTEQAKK
Chain of Toll-like receptor 5 (Homo sapiens) (O60602 whole entry): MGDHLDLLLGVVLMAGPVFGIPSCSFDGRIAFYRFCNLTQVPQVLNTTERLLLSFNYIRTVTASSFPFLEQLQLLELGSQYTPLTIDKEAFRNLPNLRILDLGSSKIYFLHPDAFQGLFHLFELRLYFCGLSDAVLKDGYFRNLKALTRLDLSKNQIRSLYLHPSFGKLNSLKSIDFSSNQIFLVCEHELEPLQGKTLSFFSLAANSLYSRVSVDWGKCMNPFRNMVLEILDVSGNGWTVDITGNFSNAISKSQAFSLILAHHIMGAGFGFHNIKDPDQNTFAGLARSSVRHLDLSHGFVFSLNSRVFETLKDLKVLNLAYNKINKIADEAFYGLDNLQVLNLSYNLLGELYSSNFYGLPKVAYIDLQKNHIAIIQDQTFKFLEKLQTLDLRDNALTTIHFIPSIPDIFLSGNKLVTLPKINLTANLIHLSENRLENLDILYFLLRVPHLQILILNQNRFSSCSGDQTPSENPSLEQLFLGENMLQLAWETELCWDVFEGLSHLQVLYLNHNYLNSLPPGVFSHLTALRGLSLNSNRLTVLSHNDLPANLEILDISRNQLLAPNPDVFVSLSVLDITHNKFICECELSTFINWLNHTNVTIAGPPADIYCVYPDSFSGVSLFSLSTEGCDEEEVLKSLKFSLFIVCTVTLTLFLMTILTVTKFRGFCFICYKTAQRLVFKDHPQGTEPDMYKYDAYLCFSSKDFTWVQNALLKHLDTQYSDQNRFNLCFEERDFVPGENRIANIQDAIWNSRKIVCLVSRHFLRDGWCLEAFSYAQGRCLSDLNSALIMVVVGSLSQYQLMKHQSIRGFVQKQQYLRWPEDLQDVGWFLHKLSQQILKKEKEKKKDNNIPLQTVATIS
Chain of Toll-like receptor 4 (Homo sapiens) (O00206 whole entry): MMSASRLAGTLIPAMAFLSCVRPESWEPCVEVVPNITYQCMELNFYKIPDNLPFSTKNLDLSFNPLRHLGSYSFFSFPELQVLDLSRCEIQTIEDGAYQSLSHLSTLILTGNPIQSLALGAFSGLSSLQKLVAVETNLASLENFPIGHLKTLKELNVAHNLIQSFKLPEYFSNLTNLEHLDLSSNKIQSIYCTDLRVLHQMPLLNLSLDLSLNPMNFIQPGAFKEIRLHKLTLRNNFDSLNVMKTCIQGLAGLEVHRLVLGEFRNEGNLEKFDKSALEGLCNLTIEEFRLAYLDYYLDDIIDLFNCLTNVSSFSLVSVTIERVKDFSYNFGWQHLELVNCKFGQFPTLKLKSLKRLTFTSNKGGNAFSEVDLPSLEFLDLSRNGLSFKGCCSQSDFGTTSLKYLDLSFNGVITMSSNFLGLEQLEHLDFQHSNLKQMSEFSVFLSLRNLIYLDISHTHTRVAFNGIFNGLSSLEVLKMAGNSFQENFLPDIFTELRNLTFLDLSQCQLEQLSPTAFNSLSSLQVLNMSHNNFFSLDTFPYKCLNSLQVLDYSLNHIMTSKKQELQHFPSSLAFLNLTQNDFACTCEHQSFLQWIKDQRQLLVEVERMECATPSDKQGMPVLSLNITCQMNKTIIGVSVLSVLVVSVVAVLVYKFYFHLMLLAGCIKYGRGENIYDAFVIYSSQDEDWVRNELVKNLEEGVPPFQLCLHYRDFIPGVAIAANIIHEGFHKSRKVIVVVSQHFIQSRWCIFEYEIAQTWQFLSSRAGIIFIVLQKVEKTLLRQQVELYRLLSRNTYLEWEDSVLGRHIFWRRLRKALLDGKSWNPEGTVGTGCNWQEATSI
Chain of Toll-like receptor 2 (O60603 whole entry): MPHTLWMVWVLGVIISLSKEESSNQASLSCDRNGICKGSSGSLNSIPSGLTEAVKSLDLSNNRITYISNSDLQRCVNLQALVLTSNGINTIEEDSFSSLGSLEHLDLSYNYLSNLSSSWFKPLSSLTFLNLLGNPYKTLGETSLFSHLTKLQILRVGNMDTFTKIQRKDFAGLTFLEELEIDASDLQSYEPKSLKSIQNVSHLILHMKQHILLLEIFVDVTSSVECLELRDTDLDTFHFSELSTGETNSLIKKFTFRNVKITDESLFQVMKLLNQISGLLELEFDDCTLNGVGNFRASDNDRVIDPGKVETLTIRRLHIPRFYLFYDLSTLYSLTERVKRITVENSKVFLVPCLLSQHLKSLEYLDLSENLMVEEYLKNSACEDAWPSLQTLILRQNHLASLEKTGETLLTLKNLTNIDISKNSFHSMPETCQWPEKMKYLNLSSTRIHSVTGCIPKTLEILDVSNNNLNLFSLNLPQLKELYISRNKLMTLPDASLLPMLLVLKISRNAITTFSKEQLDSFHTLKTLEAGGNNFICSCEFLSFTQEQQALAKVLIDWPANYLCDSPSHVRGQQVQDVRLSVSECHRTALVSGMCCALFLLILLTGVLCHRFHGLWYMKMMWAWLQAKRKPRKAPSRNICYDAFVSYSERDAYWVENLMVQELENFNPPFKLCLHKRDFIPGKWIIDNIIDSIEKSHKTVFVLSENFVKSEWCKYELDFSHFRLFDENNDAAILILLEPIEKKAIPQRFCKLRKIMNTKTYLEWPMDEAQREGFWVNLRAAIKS

With `CC(C)OC(=O)c1c(NC(=S)Nc2ccc(F)c3ccccc23)sc2c1CCC2` the Activity [1] was “Active”, the Activity [2] was “inactive” and the Activity [3] was 11.5%. The Activity [4] was “Dose-Dependent Effect”, the Activity [5] was “Non-Toxic” and the Activity [6] was “Dose-Dependent Effect”. The Activity [7] was “Dose-Dependent Effect”, the Activity [8] was “inactive” and the Activity [9] was “Active”. For the same molecule, the Activity [10] was “inactive”, the Activity [11] was “Active” and the Activity [12] was “inactive”. For the same molecule, the Activity [13] was “Active”, the “Ratio CC50/EC50” value [14] was greater than 3200 and the “fold change (FC)” value [15] was 7. The Activity [16] was “inactive”, the “fold change (FC)” value [17] was 2 and the Activity [18] was “inactive”. The Activity [19] was “inactive”, the Activity [20] was 25.85% and the Activity [21] was “inactive”. The Activity [22] was “Dose-Dependent Effect”, the Activity [23] was “inactive” and the Activity [24] was “inactive”. For the same molecule, the “fold change (FC)” value [25] was 2, the Activity [26] was 16.4% and the Activity [27] was “inactive”. The Activity [28] was “Active”, the Activity [29] was “Active” and the Activity [30] was “Active”. For the same molecule, the Activity [31] was “inactive”, the Activity [32] was “Active” and the Activity [33] was “Active”. For the same molecule, the Activity [34] was “inactive”, the half-life at 250 µM [35] was 1.5 h and the Activity [36] was “inactive”.
